This passage reports T/C results from PubChem BioAssay AID256 (DTP/NCI, 2004).

The test system of this test is CD2F1 mice, L1210 leukemia ip, survival T/C. Kind of test: NCI In Vivo Anticancer Drug Screen. Data for tumor model L1210 Leukemia (intraperitoneal) in CD2F1 (CDF1) mice. The note with it: higher = longer survival. In short, it runs like this: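 Antitumor effect is scored in animals hosting a serially transplanted tumor. Values compare compound-dosed animals against vehicle-only controls as a simple quotient.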

Setting [1] is: endpoint: mean survival time, dose: 12.5 mg/kg/injection, schedule: Q01DX009 (ip), vehicle: saline with Tween-80.
Where [2] appears, read: endpoint: mean survival time, dose: 25.0 mg/kg/injection, schedule: Q01DX009 (ip), vehicle: saline with Tween-80.
Setting [3] is: endpoint: mean survival time, dose: 50.0 mg/kg/injection, schedule: Q01DX009 (ip), vehicle: saline with Tween-80.
Where [4] appears, read: endpoint: mean survival time, dose: 100.0 mg/kg/injection, schedule: Q01DX009 (ip), vehicle: saline with Tween-80.
The mark [5] stands for this setting: endpoint: mean survival time, dose: 200.0 mg/kg/injection, schedule: Q01DX009 (ip), vehicle: saline with Tween-80.
[6] abbreviates: endpoint: mean survival time, dose: 400.0 mg/kg/injection, schedule: Q01DX009 (ip), vehicle: saline with Tween-80.
Setting [7] is: endpoint: mean survival time, dose: 100.0 mg/kg/injection, schedule: Q04DX003 (ip), vehicle: saline with Tween-80.
[8] abbreviates: endpoint: mean survival time, dose: 200.0 mg/kg/injection, schedule: Q04DX003 (ip), vehicle: saline with Tween-80.
Setting [9] is: endpoint: mean survival time, dose: 400.0 mg/kg/injection, schedule: Q04DX003 (ip), vehicle: saline with Tween-80.
Setting [10] is: endpoint: mean survival time, dose: 100.0 mg/kg/injection, schedule: Q01DX009 (ip), vehicle: other.

“And” between values parts separate entries of the source, which are not always exact repeats. Identical values can stand only once. Inconclusive results and toxic doses are left out.

Regarding `Nc1ncn(C2OC(COC(=O)c3ccccc3)C(OC(=O)c3ccccc3)C2OC(=O)c2ccccc2)n1` (stereo not given), the T/C runs as follows: (endpoint: median survival time, dose: 8.75 mg/kg/injection, schedule: Q01DX005 (ip), vehicle: distilled water + Tween-80) 94 % of control; (endpoint: median survival time, dose: 17.5 mg/kg/injection, schedule: Q01DX005 (ip), vehicle: distilled water + Tween-80) 91 % of control; (endpoint: median survival time, dose: 35.0 mg/kg/injection, schedule: Q01DX005 (ip), vehicle: distilled water + Tween-80) 91 % of control; (endpoint: median survival time, dose: 70.0 mg/kg/injection, schedule: Q01DX005 (ip), vehicle: distilled water + Tween-80) 95 % of control; (endpoint: median survival time, dose: 140.0 mg/kg/injection, schedule: Q01DX005 (ip), vehicle: distilled water + Tween-80) 91 % of control.

With `Cc1ccc(NC(=O)Nc2ccccc2C(N)=O)cc1C`, the T/C runs as follows: under setting [1], 95 % of control; under setting [2], 102 % of control; under setting [3], 95 % of control; under setting [4], 92 % of control; under setting [5], 92 % of control.

In the case of `Cc1cc(NCCCCCCCNc2cc(C)nc3cc(N)ccc23)c2ccc(N)cc2n1`, the T/C is 123 % of control and 110 % of control (endpoint: mean survival time, dose: 0.78 mg/kg/injection, schedule: Q01DX009 (ip), vehicle: saline with Tween-80); 121 % of control and 123 % of control (endpoint: mean survival time, dose: 1.56 mg/kg/injection, schedule: Q01DX009 (ip), vehicle: saline with Tween-80); 153 % of control (endpoint: mean survival time, dose: 6.25 mg/kg/injection, schedule: Q01DX009 (ip), vehicle: saline with Tween-80); 157 % of control and 183 % of control under setting [1]; 104 % of control under setting [2]; 119 % of control (endpoint: median survival time, dose: 0.78 mg/kg/injection, schedule: Q01DX009 (ip), vehicle: distilled water + Tween-80). Also, the T/C runs as follows: (endpoint: median survival time, dose: 0.78 mg/kg/injection, schedule: Q01DX009 (ip), vehicle: other) 113 % of control; (endpoint: median survival time, dose: 1.56 mg/kg/injection, schedule: Q01DX009 (ip), vehicle: distilled water + Tween-80) 121 % of control; (endpoint: median survival time, dose: 1.56 mg/kg/injection, schedule: Q01DX009 (ip), vehicle: other) 120 % of control; (endpoint: median survival time, dose: 6.25 mg/kg/injection, schedule: Q01DX009 (ip), vehicle: other) 150 % of control; (endpoint: median survival time, dose: 6.25 mg/kg/injection, schedule: Q01DX009 (ip), vehicle: water) 157 % of control; (endpoint: median survival time, dose: 12.5 mg/kg/injection, schedule: Q01DX009 (ip), vehicle: distilled water + Tween-80) 167 % of control. Moreover, the T/C is 170 % of control (endpoint: median survival time, dose: 12.5 mg/kg/injection, schedule: Q01DX009 (ip), vehicle: other) and 180 % of control (endpoint: median survival time, dose: 12.5 mg/kg/injection, schedule: Q01DX009 (ip), vehicle: water).

With `O=P(O)(O)CP(=O)(O)O.[NH-]CC[NH-].[NH-]CC[NH-].[Pt+2].[Pt+2]`, the T/C runs as follows: (endpoint: mean survival time, dose: 3.13 mg/kg/injection, schedule: Q04DX003 (ip), vehicle: distilled water + Tween-80) 119 % of control; (endpoint: mean survival time, dose: 6.25 mg/kg/injection, schedule: Q04DX003 (ip), vehicle: distilled water + Tween-80) 92 % of control; (endpoint: mean survival time, dose: 12.5 mg/kg/injection, schedule: Q04DX003 (ip), vehicle: distilled water + Tween-80) 103 % of control; (endpoint: mean survival time, dose: 25.0 mg/kg/injection, schedule: Q04DX003 (ip), vehicle: distilled water + Tween-80) 109 % of control; (endpoint: mean survival time, dose: 50.0 mg/kg/injection, schedule: Q04DX003 (ip), vehicle: distilled water + Tween-80) 103 % of control; (endpoint: mean survival time, dose: 100.0 mg/kg/injection, schedule: Q04DX003 (ip), vehicle: distilled water + Tween-80) 109 % of control. Also, under “endpoint: mean survival time, dose: 200.0 mg/kg/injection, schedule: Q04DX003 (ip), vehicle: distilled water + Tween-80”, the T/C was 90 % of control.

Turning to `Cl/C(=N\Nc1ccccc1)c1ccccc1`, the T/C runs as follows: (endpoint: mean survival time, dose: 12.5 mg/kg/injection, schedule: Q01DX009 (ip), vehicle: Klucel (hydroxypropylcellulose) (HPC)) 102 % of control; (endpoint: mean survival time, dose: 25.0 mg/kg/injection, schedule: Q01DX009 (ip), vehicle: Klucel (hydroxypropylcellulose) (HPC)) 98 % of control; (endpoint: mean survival time, dose: 50.0 mg/kg/injection, schedule: Q01DX009 (ip), vehicle: Klucel (hydroxypropylcellulose) (HPC)) 88 % of control.

`O=C1OC(c2ccccc2)(c2ccccc2)Cc2ccccc21`: the T/C is 98 % of control under setting [4], 102 % of control under setting [5] and 102 % of control under setting [6].

As to `Nc1cccc2cc3ccccc3[n+]([O-])c12`, the T/C reads like this: under setting [7], 104 % of control; under setting [8], 108 % of control; under setting [9], 95 % of control.

Take `c1cc2c(cc1-c1nnc(-c3ccc4c(c3)OCO4)nn1)OCO2`: the T/C (endpoint: mean survival time, dose: 12.5 mg/kg/injection, schedule: Q01DX001 (ip), vehicle: saline with Tween-80) was 91 % of control; the T/C under setting [1] was 94 % of control; the T/C (endpoint: mean survival time, dose: 25.0 mg/kg/injection, schedule: Q01DX001 (ip), vehicle: saline with Tween-80) is 90 % of control; the T/C under setting [2] is 96 % of control; the T/C (endpoint: mean survival time, dose: 50.0 mg/kg/injection, schedule: Q01DX001 (ip), vehicle: saline with Tween-80) is 95 % of control; the T/C under setting [3] is 88 % of control.

Consider `O=C(O)/C=C\SCCCC(=O)O`, for which the T/C was 94 % of control (endpoint: mean survival time, dose: 100.0 mg/kg/injection, schedule: Q01DX001 (ip), vehicle: saline with Tween-80); 111 % of control (endpoint: mean survival time, dose: 200.0 mg/kg/injection, schedule: Q01DX001 (ip), vehicle: saline with Tween-80); 103 % of control (endpoint: mean survival time, dose: 400.0 mg/kg/injection, schedule: Q01DX001 (ip), vehicle: saline with Tween-80).

Consider `CC1=C(c2ccccc2)C(c2ccccc2)C(C)C1=O` (stereo not given), for which the T/C reads like this: under setting [4], 100 % of control; under setting [5], 98 % of control; under setting [6], 87 % of control.

As for `O=C(C[n+]1csc2ccccc21)c1ccccc1`, the T/C is, setting by setting: under setting [4], 106 % of control; under setting [7], 97 % of control; under setting [5], 92 % of control; under setting [8], 106 % of control; under setting [6], 87 % of control; under setting [9], 109 % of control.

As to `CCOC(=O)C(Br)C(Br)c1cccc([N+](=O)[O-])c1` (stereo not given), the T/C (endpoint: mean survival time, dose: 25.0 mg/kg/injection, schedule: Q01DX009 (ip), vehicle: other) is 98 % of control; the T/C (endpoint: mean survival time, dose: 50.0 mg/kg/injection, schedule: Q01DX009 (ip), vehicle: other) was 98 % of control; the T/C under setting [10] is 101 % of control.

As to `CC1CCCCC1NC(=O)Nc1ccccc1` (stereo not given), the T/C by setting is: under setting [7], 94 % of control; under setting [8], 92 % of control.

As to `CCOC(=O)Nc1cccc([N+](=O)[O-])c1`, the T/C was 98 % of control under setting [10] and 113 % of control (endpoint: mean survival time, dose: 200.0 mg/kg/injection, schedule: Q01DX009 (ip), vehicle: other).

With `CCCCOS(=O)(=O)c1ccc(C)cc1`, the T/C (endpoint: mean survival time, dose: 100.0 mg/kg/injection, schedule: Q04DX002 (ip), vehicle: Klucel (hydroxypropylcellulose) (HPC)) was 93 % of control; the T/C (endpoint: mean survival time, dose: 200.0 mg/kg/injection, schedule: Q04DX002 (ip), vehicle: Klucel (hydroxypropylcellulose) (HPC)) was 101 % of control; the T/C (endpoint: mean survival time, dose: 400.0 mg/kg/injection, schedule: Q04DX002 (ip), vehicle: Klucel (hydroxypropylcellulose) (HPC)) was 90 % of control.

For the molecule `Cc1ccc2nc(-c3ccc4nc(-c5ccc(N)cc5)sc4c3)sc2c1S(=O)(=O)O`, the T/C was 109 % of control (endpoint: mean survival time, dose: 100.0 mg/kg/injection, schedule: Q04DX003 (ip), vehicle: saline); 107 % of control (endpoint: mean survival time, dose: 200.0 mg/kg/injection, schedule: Q04DX003 (ip), vehicle: saline); 112 % of control (endpoint: mean survival time, dose: 400.0 mg/kg/injection, schedule: Q04DX003 (ip), vehicle: saline).

Regarding `CCOC(=O)CN1CC(=O)Nc2ccccc21`, the T/C runs as follows: under setting [7], 95 % of control; under setting [8], 98 % of control; under setting [9], 111 % of control.

Turning to `CC(C)CC(NC(=O)CCl)C(=O)O` (stereo not given), the T/C under setting [4] is 101 % of control; the T/C under setting [7] is 97 % of control; the T/C under setting [5] is 96 % of control; the T/C under setting [8] is 98 % of control; the T/C under setting [6] was 101 % of control; the T/C under setting [9] was 96 % of control.

For `COc1ccc(-n2c(C)nc3c(cnn3C3OC(CO)C(O)C3O)c2=O)cc1` (stereo not given), the T/C by setting is: (endpoint: median survival time, dose: 12.5 mg/kg/injection, schedule: Q01DX005 (ip), vehicle: saline) 103 % of control; (endpoint: median survival time, dose: 25.0 mg/kg/injection, schedule: Q01DX005 (ip), vehicle: saline) 102 % of control; (endpoint: median survival time, dose: 50.0 mg/kg/injection, schedule: Q01DX005 (ip), vehicle: saline) 105 % of control; (endpoint: median survival time, dose: 100.0 mg/kg/injection, schedule: Q01DX005 (ip), vehicle: saline) 111 % of control; (endpoint: median survival time, dose: 200.0 mg/kg/injection, schedule: Q01DX005 (ip), vehicle: saline) 103 % of control.
